Test results published in patent publication US20140378472A1, “AMORPHOUS VILAZODONE HYDROCHLORIDE, A PROCESS FOR ITS PREPARATION AND PHARMACEUTICAL COMPOSITIONS THEREOF” (RANBAXY LABORATORIES LIMITED, priority 2011, published 2014).

Assay: storage stability of the amorphous form, followed by XRPD
Format: physicochemical
Conditions: storage at 25° C. and 52% relative humidity (RH) for 24 days; XRPD pattern similar to FIG. 5 (sample of Example 3)
Procedure: XRPD of the samples were determined by using a Panalytical X'Pert Pro X-Ray Powder Diffractometer in the range 3-40 degree 2 theta and under a tube voltage and current of 45 Kv and 40 mA, respectively. Copper radiation of wavelength 1.54 angstrom and Xceletor detector was used.

Compound: Cl.N#Cc1ccc2[nH]cc(CCCCN3CCN(c4ccc5oc(C(N)=O)cc5c4)CC3)c2c1 [amorphous vilazodone hydrochloride, 5-{4-[4-(5-cyano-1H-indo1-3-yl)butyl]piperazin-1-yl}-1-benzofuran-2-carboxamide hydrochloride]
- polymorphic stability on storage (XRPD): stable and does not convert to any other polymorphic form
